Experimental data from publication PMC5193068, “Application of Mice Humanized for CYP2D6 to the Study of Tamoxifen Metabolism and Drug–Drug Interaction with Antidepressants” (Drug Metabolism and Disposition, 2017).
“And” between values parts separate entries of the source, which are not always exact repeats. Identical values can stand only once. Like-named read-outs stand apart in the source and are kept apart here.

Key:
[1] = Preliminary single oral dose of tamoxifen in hCYP2D6 mice, blood metabolite concentrations; type: in vivo; conditions: single 15-mg/kg oral dose of tamoxifen; for Cmax: hCYP2D6 (CYP2D6-humanized mouse line), mouse, blood, preliminary, data not shown
[2] = parameters: method as in Chang et al., 2016; conditions: hPXR/hCAR/h3A4/3A7/2D6 mice, single dose of 20 mg/kg tamoxifen; ref Chang et al., 2016; cited from earlier work
[3] = system: estrogen receptor (ER); parameters: method as in Johnson et al., 2004; conditions: ref Johnson et al., 2004; cited from earlier work
[4] = Endoxifen formation from NDT in Cyp2dKO mouse liver microsomes; type: in vitro ADME; conditions: 5 µM NDT as substrate
Procedure: (§1) All in vitro analyses were carried out in 100 mM potassium phosphate buffer, pH 7.4, containing 3.3 mM MgCl2, with agitation at 400 rpm at 37°C on a thermoshaker. All samples were handled in amber tubes under conditions of subdued light for the duration of the procedure. […] All subsequent assays were carried out under the same conditions, irrespective of the microsome source, with 5 µM N-desmethyltamoxifen (NDT) as substrate. […] Solvent (methanol) concentrations were 0.2% or lower in all incubations.

[5] = system: CYP1A2; experiment: Correlation of NDT hydroxylation with P450 probe substrate metabolism in panel of 13 HLMs (1A2); type: in vitro ADME, human; conditions: 1A2, Phenacetin O-deethylation
Procedure: as §1
(§2) Spearman’s rank correlations and inhibition parameters of ADs were calculated using GraphPad Prism software (version 6; GraphPad Inc., La Jolla, CA).

[6] = system: CYP2A6; experiment: Correlation of NDT hydroxylation with P450 probe substrate metabolism in panel of 13 HLMs (2A6); type: in vitro ADME, human; conditions: 2A6, Coumarin 7-hydroxylation
Procedure: as §1, §2

[7] = system: CYP2B6; experiment: Correlation of NDT hydroxylation with P450 probe substrate metabolism in panel of 13 HLMs (2B6); type: in vitro ADME, human; conditions: 2B6, S-mephenytoin N-demethylation
Procedure: as §1, §2

[8] = system: CYP2C8; experiment: Correlation of NDT hydroxylation with P450 probe substrate metabolism in panel of 13 HLMs (2C8); type: in vitro ADME, human; conditions: 2C8, Paclitaxel 6α-hydroxylation
Procedure: as §1, §2

[9] = system: CYP2C9; experiment: Correlation of NDT hydroxylation with P450 probe substrate metabolism in panel of 13 HLMs (2C9); type: in vitro ADME, human; conditions: 2C9, Diclofenac 4′-hydroxylation
Procedure: (§3) All in vitro analyses were carried out in 100 mM potassium phosphate buffer, pH 7.4, containing 3.3 mM MgCl2, with agitation at 400 rpm at 37°C on a thermoshaker. All samples were handled in amber tubes under conditions of subdued light for the duration of the procedure. […] Assays to determine the apparent kinetic parameters of endoxifen formation in hCYP2D6 mouse liver microsomes (MLMs) were performed in triplicate under conditions of linearity for time (6 minutes) and hCYP2D6 protein (0.0625 mg/ml). All subsequent assays were carried out under the same conditions, irrespective of the microsome source, with 5 µM N-desmethyltamoxifen (NDT) as substrate. […] Solvent (methanol) concentrations were 0.2% or lower in all incubations.
as §2

[10] = system: CYP2C19; experiment: Correlation of NDT hydroxylation with P450 probe substrate metabolism in panel of 13 HLMs (2C19); type: in vitro ADME, human; conditions: 2C19, S-mephenytoin 4′-hydroxylation
Procedure: as §3, §2

[11] = system: CYP2E1; experiment: Correlation of NDT hydroxylation with P450 probe substrate metabolism in panel of 13 HLMs (2E1); type: in vitro ADME, human; conditions: 2E1, Chlorzoxazone 6-hydroxylation
Procedure: as §3, §2

[12] = system: CYP3A4; experiment: Correlation of NDT hydroxylation with P450 probe substrate metabolism in panel of 13 HLMs (3A4); type: in vitro ADME, human; conditions: 3A4, Testosterone 6β-hydroxylation
Procedure: as §1, §2

[13] = Preliminary tolerability of single doses of NDT in mice; type: in vivo; conditions: single doses of NDT required to achieve about 200 ng/ml, data not shown
[14] = 2013, Jager et al., 2014, cited from earlier work
[15] = target: T1, CYP2D6 (Homo sapiens, UniProt P10635); experiment: Apparent kinetic parameters of endoxifen formation from NDT in hCYP2D6 mouse liver microsomes; type: in vitro ADME; parameters: Assays to determine the apparent kinetic parameters of endoxifen formation in hCYP2D6 mouse liver microsomes (MLMs) were performed in triplicate; tissue Taconic (animals); host or cells: liver microsomes pooled from four hCYP2D6 (CYP2D6-humanized, murine Cyp2d deleted) mice; conditions: hCYP2D6 MLMs 0.0625 mg/ml, 6 min, substrate inhibition model
Procedure: as §3, §2

[16] = target: T1, CYP2D6; experiment: Correlation of NDT hydroxylation with P450 probe substrate metabolism in panel of 13 HLMs (2D6); type: in vitro ADME; parameters: Assays to determine the apparent kinetic parameters of endoxifen formation in hCYP2D6 mouse liver microsomes (MLMs) were performed in triplicate; tissue Taconic (animals); host or cells: liver microsomes pooled from four hCYP2D6 (CYP2D6-humanized, murine Cyp2d deleted) mice; conditions: 2D6, Bufuralol 1′-hydroxylation
Procedure: as §3, §2

[17] = target: T1, CYP2D6; parameters: Assays to determine the apparent kinetic parameters of endoxifen formation in hCYP2D6 mouse liver microsomes (MLMs) were performed in triplicate; tissue Taconic (animals); host or cells: liver microsomes pooled from four hCYP2D6 (CYP2D6-humanized, murine Cyp2d deleted) mice; method as in Desta et al. (2004); conditions: two individual HLM preparations; ref Desta et al. (2004); read-out: Km (endoxifen formation); cited from earlier work
[18] = target: T1, CYP2D6; experiment: biochemical
Procedure: as §1, §2

[19] = target: T1, CYP2D6; conditions: female, hCYP2D6 (mice humanized for CYP2D6), mouse, in vivo
Procedure: All animal work was carried out on 8- to 12-week-old female mice. […] NDT was suspended in corn oil at 2 mg/ml for oral administration at 10 mg/kg (5 µl/g body weight). For sample collection for pharmacokinetic (PK) analysis, 10 µl whole blood was withdrawn from the tail vein at the indicated time points. Samples were immediately added to a tube containing heparin solution (10 µl, 15 IU/ml) and stored at −20°C until processing.
In vivo PK samples were thawed by the addition of 70 µl acetonitrile containing the internal standard (tamoxifen-d5 at 0.2 µg/ml). After incubation on ice for 10 minutes, in vivo and in vitro samples were vortexed (5 seconds) and centrifuged for 10 minutes at 16,000g. The supernatant was added to 96-well plates for liquid chromatography (LC)–tandem mass spectrometry (MS/MS).
Analysis of in vitro incubation and in vivo blood PK samples was carried out on a Waters Acquity ultra-performance LC system and a Micromass Quattro Premier mass spectrometer (both Micromass, Manchester, UK). […] Acquired data were analyzed in QuanLynx (Waters, Milford, MA) relative to analyte standard curves spanning the range of concentrations under study.
Plasma levels of both of these compounds, and of endoxifen, were monitored over the following 48-hour period.

[20] = system: E0771 cells; experiment: Estradiol dependence of E0771 cell growth in vitro; type: cell-based, mouse; conditions: Supplemental Fig. 2
[21] = parameters: method as in gsk-clinicalstudyregister.com study 29060/474; conditions: patients receiving 40 mg/d paroxetine; ref gsk-clinicalstudyregister.com study 29060/474; cited from earlier work
[22] = system: murine plasma proteins; parameters: method as in van Harten, 1993; Qin et al., 2016; conditions: mouse plasma; ref van Harten, 1993; Qin et al., 2016; cited from earlier work
[23] = target: T1, CYP2D6; conditions: read-out: Ki for inhibition of dextromethorphan O-demethylation; HLMs; ref Bertelsen et al. (2003); cited from earlier work

T1 sequence (P10635 whole entry): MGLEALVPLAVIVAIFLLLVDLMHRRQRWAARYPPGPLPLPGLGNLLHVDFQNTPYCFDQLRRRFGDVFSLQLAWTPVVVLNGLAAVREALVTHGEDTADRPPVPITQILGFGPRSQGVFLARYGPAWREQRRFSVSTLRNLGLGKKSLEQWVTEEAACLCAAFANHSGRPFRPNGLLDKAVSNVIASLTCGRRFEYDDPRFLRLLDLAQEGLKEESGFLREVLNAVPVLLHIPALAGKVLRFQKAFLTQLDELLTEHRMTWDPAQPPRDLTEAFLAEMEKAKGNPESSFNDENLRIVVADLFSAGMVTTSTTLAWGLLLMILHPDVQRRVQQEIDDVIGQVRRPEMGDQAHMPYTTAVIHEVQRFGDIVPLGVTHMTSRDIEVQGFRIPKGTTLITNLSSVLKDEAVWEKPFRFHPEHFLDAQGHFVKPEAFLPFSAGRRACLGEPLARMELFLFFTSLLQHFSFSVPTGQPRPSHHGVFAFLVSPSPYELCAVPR

SMILES: CC/C(=C(\c1ccc(O)cc1)c1ccc(OCCN(C)C)cc1)c1ccccc1 [4-HT, 4-hydroxytamoxifen]
- Cmax [1]: 235 ng/mL
- blood concentration of 4-HT relative to NDT [1]: 2.7 fold
- 4-HT levels relative to NDT [2]: 5.4 fold
- Cmax [2]: 248 ng/mL
- potency as estrogen receptor (ER) antagonist relative to the parent compound (tamoxifen) [3]: up to 100 times

SMILES: CC/C(=C(\c1ccccc1)c1ccc(OCCNC)cc1)c1ccccc1 [NDT, N-desmethyltamoxifen]
- endoxifen formation by Cyp2dKO liver microsomes [4]: did not produce detectable levels
- SRCC with NDT Hydroxylation [5]: −0.289
- SRCC with NDT Hydroxylation [6]: 0.161
- SRCC with NDT Hydroxylation [7]: 0.572
- SRCC with NDT Hydroxylation [8]: 0.380
- SRCC with NDT Hydroxylation [9]: 0.526
- SRCC with NDT Hydroxylation [10]: −0.220
- SRCC with NDT Hydroxylation [11]: 0.311
- SRCC with NDT Hydroxylation [12]: −0.005
- Cmax [1]: 86 ng/mL
- tolerability of single doses [13]: not well tolerated by all animals
- Cmax [2]: 46 ng/mL
- mean steady-state concentration in patient serum ([14]; patients on tamoxifen, ref Stearns et al., 2003, Madlensky et al., 2011, Lien et al.): approximately 200 ng/ml
- average blood plasma steady-state Cmax ([14]; patients receiving 20 mg tamoxifen per day, ref Lien et al.): approximately 200 ng/ml
- KS1 (apparent, endoxifen formation from NDT) [15]: 5.1 ± 0.4 µM
- KS2 (apparent, endoxifen formation from NDT) [15]: 3.9 ± 0.3 µM
- SRCC with NDT Hydroxylation [16]: 0.698
- Km [17]: 4.5 µM and 5.9 µM

SMILES: CN(C)CCC=C1c2ccccc2CCc2ccccc21 [amitriptyline]
- Ki [18]: 720 nM

SMILES: CC/C(=C(\c1ccc(O)cc1)c1ccc(OCCNC)cc1)c1ccccc1 [endoxifen, 4-hydroxy-N-desmethyltamoxifen]
- endoxifen levels in hCYP2D6 mice relative to human subjects [19]: 2.5-13 fold
- potency as estrogen receptor (ER) antagonist relative to the parent compound (tamoxifen) [3]: up to 100 times

SMILES: C[C@]12CC[C@@H]3c4ccc(O)cc4CC[C@H]3[C@@H]1CC[C@@H]2O [estradiol]
- dependence of E0771 cell growth on estradiol [20]: no dependence whatsoever

SMILES: Fc1ccc([C@@H]2CCNC[C@H]2COc2ccc3c(c2)OCO3)cc1 [paroxetine]
- steady-state Cmax [21]: approximately 150 ng/ml
- binding with murine plasma proteins [22]: > 96%
- Ki [23]: 360 nM
